From patent US20220364989A1, “METHOD FOR MEASURING PHOTOTOXICITY OR PHOTOALLERGY AND REAGENT FOR USE THEREIN” (FUJIFILM Corporation, priority 2018, published 2022)

Assays:
[1] = in vivo; cited from earlier work
[2] = Average score of NAC and NAL depletion and phototoxicity or photoallergy determination, UV detection
[3] = in vivo; cited from earlier work; remark: listed apart in the source
[4] = Average score of NAC and NAL depletion and phototoxicity or photoallergy determination, fluorescence detection
[5] = NAL depletion under and without ultraviolet irradiation, HPLC with fluorescence detection (284 nm excitation, 333 nm fluorescence); conditions: for NAL Depletion (%) without light irradiation / NAL Depletion (%): without light irradiation
[6] = NAC depletion under and without ultraviolet irradiation, HPLC with fluorescence detection (284 nm excitation, 333 nm fluorescence); conditions: for NAC Depletion (%) without light irradiation / NAC Depletion (%): without light irradiation
[7] = NAC depletion under and without ultraviolet irradiation, HPLC with UV detection (281 nm)
[8] = NAL depletion under and without ultraviolet irradiation, HPLC with UV detection (281 nm)
[9] = under light irradiation, single compound
[10] = under light irradiation, photoallergic compound concentration 0.05 mg/mL
[11] = under light irradiation, photoallergic compound concentration 0.2 mg/mL
[12] = under light irradiation, photoallergic compound concentration 0.5 mg/mL
[13] = without light irradiation, photoallergic compound concentration 0.05 mg/mL
[14] = without light irradiation, photoallergic compound concentration 0.2 mg/mL
[15] = without light irradiation, photoallergic compound concentration 0.5 mg/mL
[16] = photoallergic compound concentration 0.05 mg/mL
[17] = photoallergic compound concentration 0.2 mg/mL
[18] = photoallergic compound concentration 0.5 mg/mL
[19] = average of NAC and NAL depletion
[20] = without light irradiation, single compound
[21] = 25° C. 24 hours light-shielded, test substance solution 1 mmol/L
[22] = 2,000 μW/cm^2 for 1 hour then 25° C. 23 hours, test substance solution 1 mmol/L

## C[S+](C)[O-] [No. 58, Dimethyl sulfoxide]
[1]
  In vivo photoallergy: Negative
[2]; [9]
  Average score (%): 0.4%
[3]
  In vivo phototoxicity: Negative

## CC(O)CO (racemic) [No. 54, Propylene glycol]
[1]
  In vivo photoallergy: Negative
[2]; [9]
  Average score (%): 0.1%
[4]; [9]
  Average score (%): 0.3%
[3]
  In vivo phototoxicity: Negative

## Tetrachlorosalicylanilide [1-4]
[2]; [10]
  Average score (%) under light irradiation: 44.0%
[2]; [11]
  Average score (%) under light irradiation: −14.9%
[2]; [12]
  Average score (%) under light irradiation: −128.5%
[2]; [13]
  Average score (%) without light irradiation: 17.0%
[2]; [14]
  Average score (%) without light irradiation: 35.4%
[2]; [15]
  Average score (%) without light irradiation: 48.2%
[5]; [16]
  Difference in depletion (under light irradiation - without light irradiation) NAL (%): 32.5%
  NAL Depletion (%) under light irradiation: 32.5%
  NAL Depletion (%) without light irradiation: 0.0%
[5]; [17]
  Difference in depletion (under light irradiation - without light irradiation) NAL (%): 72.6%
  NAL Depletion (%) under light irradiation: 72.9%
  NAL Depletion (%) without light irradiation: 0.2%
[5]; [18]
  Difference in depletion (under light irradiation - without light irradiation) NAL (%): 87.1%
  NAL Depletion (%) under light irradiation: 88.9%
  NAL Depletion (%) without light irradiation: 1.8%
[4]; [16]
  Difference in depletion (under light irradiation - without light irradiation) Average score (%): 54.5%
[4]; [17]
  Difference in depletion (under light irradiation - without light irradiation) Average score (%): 58.9%
[4]; [18]
  Difference in depletion (under light irradiation - without light irradiation) Average score (%): 54.3%
[4]; [10]
  Average score (%) under light irradiation: 65.4%
[4]; [11]
  Average score (%) under light irradiation: 85.2%
[4]; [12]
  Average score (%) under light irradiation: 93.0%
[4]; [13]
  Average score (%) without light irradiation: 10.9%
[4]; [14]
  Average score (%) without light irradiation: 26.2%
[4]; [15]
  Average score (%) without light irradiation: 38.7%
[6]; [16]
  Difference in depletion (under light irradiation - without light irradiation) NAC (%): 76.5%
  NAC Depletion (%) under light irradiation: 98.2%
  NAC Depletion (%) without light irradiation: 21.7%
[6]; [17]
  Difference in depletion (under light irradiation - without light irradiation) NAC (%): 45.3%
  NAC Depletion (%) under light irradiation: 97.5%
  NAC Depletion (%) without light irradiation: 52.2%
[6]; [18]
  Difference in depletion (under light irradiation - without light irradiation) NAC (%): 21.5%
  NAC Depletion (%) under light irradiation: 97.2%
  NAC Depletion (%) without light irradiation: 75.6%
[7]; [10]
  NAC Depletion (%) under light irradiation: (58.0) %
[7]; [11]
  NAC Depletion (%) under light irradiation: (−96.9) %
[7]; [12]
  NAC Depletion (%) under light irradiation: (−338.2) %
[7]; [13]
  NAC Depletion (%) without light irradiation: 34.2%
[7]; [14]
  NAC Depletion (%) without light irradiation: 70.1%
[7]; [15]
  NAC Depletion (%) without light irradiation: 93.7%
[8]; [16]
  Difference in depletion (under light irradiation - without light irradiation) NAL (%): 30.3%
[8]; [17]
  Difference in depletion (under light irradiation - without light irradiation) NAL (%): 66.5%
[8]; [18]
  Difference in depletion (under light irradiation - without light irradiation) NAL (%): 78.7%
[8]; [10]
  NAL Depletion (%) under light irradiation: 30.1%
[8]; [11]
  NAL Depletion (%) under light irradiation: 67.1%
[8]; [12]
  NAL Depletion (%) under light irradiation: (81.3) %
[8]; [13]
  NAL Depletion (%) without light irradiation: −0.2%
[8]; [14]
  NAL Depletion (%) without light irradiation: 0.6%
[8]; [15]
  NAL Depletion (%) without light irradiation: 2.6%

## CC(O)CCO (stereo not shown) [compound 46]
[2]
  Difference in depletion (under light irradiation - without light irradiation) Average score (%): 0.4%
[2]; [19]
  Average score (%) under light irradiation: 0.4%
  Average score (%) without light irradiation: 0.0%
[5]; single compound
  Difference in depletion (under light irradiation - without light irradiation) NAL (%): −0.1%
  NAL Depletion (%): 0.1%
[4]; single compound
  Difference in depletion (under light irradiation - without light irradiation) Average score (%): 0.1%
[4]; [20]
  Average score (%): 0.1%
[6]; single compound
  Difference in depletion (under light irradiation - without light irradiation) NAC (%): 0.2%
  NAC Depletion (%): 0.0%
[7]
  Difference in depletion (under light irradiation - without light irradiation) NAC (%): 0.7%
[7]; [21]
  NAC Depletion (%) without light irradiation: 0.0%
[7]; [22]
  NAC Depletion (%) under light irradiation: 0.7%
[8]
  Difference in depletion (under light irradiation - without light irradiation) NAL (%): 0.0%
[8]; [21]
  NAL Depletion (%) without light irradiation: 0.0%
[8]; [22]
  NAL Depletion (%) under light irradiation: 0.0%

## CC(O)CO (racemic) [compound 54]
[2]; single compound
  Difference in depletion (under light irradiation - without light irradiation) Average score (%): 0.1%
[2]; [20]
  Average score (%): 0.0%
[5]; single compound
  Difference in depletion (under light irradiation - without light irradiation) NAL (%): 0.7%
  NAL Depletion (%): 0.0%
[4]; single compound
  Difference in depletion (under light irradiation - without light irradiation) Average score (%): 0.3%
[4]; [20]
  Average score (%): 0.0%
[6]; single compound
  Difference in depletion (under light irradiation - without light irradiation) NAC (%): 0.0%
  NAC Depletion (%): 0.0%
[7]; single compound
  Difference in depletion (under light irradiation - without light irradiation) NAC (%): 0.2%
[7]; [20]
  NAC Depletion (%): 0.0%
[8]; single compound
  Difference in depletion (under light irradiation - without light irradiation) NAL (%): 0.0%
[8]; [20]
  NAL Depletion (%): 0.0%
